# Laboratory results: article PMC9640990 (Frontiers in Pharmacology, 2022)
# Target: T1, hOCT2 (Homo sapiens, UniProt O15244)
# T1 construct: host or cells: S2
# T1 sequence (O15244 1-555): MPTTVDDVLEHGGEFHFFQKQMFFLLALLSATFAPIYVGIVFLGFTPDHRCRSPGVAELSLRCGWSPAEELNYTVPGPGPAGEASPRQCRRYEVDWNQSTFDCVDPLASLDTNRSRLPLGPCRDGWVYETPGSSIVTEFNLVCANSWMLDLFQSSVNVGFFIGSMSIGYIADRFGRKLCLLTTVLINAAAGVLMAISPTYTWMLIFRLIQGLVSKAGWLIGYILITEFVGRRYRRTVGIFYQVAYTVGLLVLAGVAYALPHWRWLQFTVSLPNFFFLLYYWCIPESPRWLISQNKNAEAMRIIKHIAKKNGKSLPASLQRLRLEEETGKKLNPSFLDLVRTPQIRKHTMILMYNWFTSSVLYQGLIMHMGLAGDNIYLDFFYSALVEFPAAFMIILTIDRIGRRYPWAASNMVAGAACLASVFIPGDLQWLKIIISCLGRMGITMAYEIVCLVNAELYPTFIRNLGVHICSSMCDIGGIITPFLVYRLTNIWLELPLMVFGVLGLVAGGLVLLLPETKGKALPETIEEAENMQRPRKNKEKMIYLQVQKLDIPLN
# Test: Inhibition of hOCT2-mediated uptake of 14C-TEA in hOCT2-S2 cells
# Assay type: cell-based
# Conditions: 14C-TEA 5 µM
# Text: Considering the relative exposure characteristics, GA and PCA were selected as PK-marker and Q-marker components of PCE in previous studies ([Ma et al., 2015]; [Ma et al., 2016]; [Li et al., 2021b]). In this study, we investigated the concentration-dependent inhibitions of GA and PCA on multiple transporters, including OAT1, OAT3, OCT2, MDR1, and BCRP. Stably expressing cell lines of hOAT1-MDCK, hOAT3-MDCK, hOCT2-S2, hMDR1-MDCK, hBCRP-MDCK, and their mock cells were obtained from Japan Fuji Biomedical Co., Ltd. The cells were maintained in DMEM (Sigma) supplemented with 10% FCS, 1% non-essential amino acids (Sigma), and 2% L-glutamine. The medium for the Transwell® plates (Corning Costar, Cambridge, MA, United States) was supplemented with 0.1% gentamicin. […]
# Briefly, the hOAT1-MDCK, hOAT3-MDCK, and hOCT2-S2 cells were trypsinized and suspended in the culture medium to provide a density of 1.5 × 10^5 cells/ml. […] The radioactive intensity of ^14C-PAH, ^3H-ES, and ^14C-TEA was measured using a Tri-Carb 2910TR scintillator (PerkinElmer, United States). Fluorescence was measured at 485 nm (excitation) and 546 nm (emission) for rhodamine 123, and 425 nm (excitation) and 528 nm (emission) for lucifer yellow. IC50 values were determined by employing GraphPad Prism 9.
structure (smiles),measurement,value
"O=C(O)c1ccc(O)c(O)c1 [PCA, protocatechuic acid]",IC50,107 µM
